One block for each compound: values may come before it.
Legend:
B-16 melanoma cells [1] = assay: Cell-survival rate (cytotoxicity) in B-16 melanoma cell culture; assay type: cell-based
Text: (§1) The B-16 melanoma cell is one having an ability of producing melanin and therefore, the cells naturally grown by cell culture blacken. If a substance capable of inhibiting melanogenesis is present in the cell growth system during the cell growth, the blackening of the cells is inhibited and they relatively whiten. Accordingly, the whitening effect of each candidate substance can be evaluated on the basis of the degree of whiteness observed when adding a test sample relative to the degree of blackness observed for a control. […] To evaluate this cytotoxicity, the cell survival rate observed when adding a test sample to the system is compared with that observed for the control. Thus, the substantial whitening effect can be evaluated on the basis of the results of these cell-whitening test and cytotoxicity test.
The cell-survival rate at each added sample concentration can be determined according to the following formula
Cell-Survival Rate (%)=(A/B)×100
Wherein A represents the viable cell count observed for the system to which a sample is added and B represents the number of cells observed for the control system.

B-16 melanoma cells [2] = assay: Test for evaluating melanogenesis-inhibitory function (cell-whitening degree) in cell culture systems using B-16 melanoma cells; assay type: cell-based; set-up: key to Whitening degree: ++: The whitening degree is higher than that observed when adding 450 μg/mL of vitamin C-magnesium phosphate.; +: The whitening degree is almost identical to that observed when adding 450 μ g/mL of vitamin C-magnesium phosphate.; ±: The whitening degree is not higher than that observed when adding 450 μg/mL of vitamin C-magnesium phosphate, but higher than that of the control.; −: The whitening degree is almost identical to that observed for the control; settings: for Whitening degree / added concentration at which the whitening effect is almost identical to that of the positive control: B-16 melanoma cells; for whitening effect, times that observed for vitamin C-magnesium phosphate: from Table 1; for whitening effect, times that observed for vitamin C-magnesium phosphate / added concentration at which the whitening effect is almost identical to that of the positive control: positive control vitamin C-magnesium phosphate 450 ppm
Text: as §1
An example of such a method for evaluating the melanogenesis-inhibitory function in a cell culture system using B-16 melanoma cells comprises, for instance, the steps of dispensing 2 ml/well of a culture medium to each well of a 6-well plate, inoculating a desired amount of melanoma cells to the medium, cultivating the cells by allowing the medium to stand at 37° C. and a carbon dioxide concentration of 5%. On the following day, a solution of a test sample is added and mixed with the culture medium to a predetermined concentration and the cell cultivation is continued. After 5 days from the initiation of the cultivation, the culture medium is replaced with fresh one and the solution of the test sample is again added thereto. On the next day, the medium is removed to thus recover the cells, followed by washing them with PBS (phosphate-buffered saline) and the determination of the degree of whiteness to thus evaluate the whitening effect of the test sample. In this connection, the melanogenesis-inhibitory function is evaluated by comparing the results thus obtained with the degree of whiteness observed when the same procedures are repeated using the vitamin C-magnesium phosphate as a known whitening agent instead of the test sample solution (positive control) and that observed when the procedures are repeated without addition of any test sample (control).
A culture medium was dispensed to wells of a 6-well plate (2 mL/well each), followed by inoculation of a desired amount of B-16 melanoma cells on each well, allowing the wells to stand at 37° C. and 5% CO2 to thus cultivate the cells. On the day subsequent thereto, a sample solution prepared was added to the wells with stirring and the cultivation was continued. The culture medium was replaced with fresh one on the 5th day from the initiation of the cultivation and the sample solution was again added to the wells. On the next day, the culture medium was removed to recover the cells, followed by washing them with PBS (phosphate buffered physiological saline) and then evaluation of the cell-whitening degree In this respect, the melanogenesis-inhibitory function was evaluated by comparing the cell-whitening degree thus obtained with that observed when the same procedures used above were repeated except that vitamin C-magnesium phosphate as a known whitening agent (positive control) was substituted for the sample solution used above and that observed when the same procedures used above were repeated except that any sample was not added (control), according to the following evaluation criteria.
The evaluation criteria for the cell-whitening degree are as follows: […]

[3] = concentration 2 ppm, B-16 melanoma cells
[4] = concentration 4 ppm, B-16 melanoma cells
[5] = concentration 6 ppm, B-16 melanoma cells
[6] = concentration 8 ppm, B-16 melanoma cells
[7] = concentration 10 ppm, B-16 melanoma cells

SMILES: O=c1cc(CO)occ1O [Kojic Acid, reference compound]
Cell-Survival Rate (B-16 melanoma cells [1]; mouse, 10 ppm): 100% | Cell-Survival Rate (B-16 melanoma cells [1]; mouse, 15 ppm): 100% | Cell-Survival Rate (B-16 melanoma cells [1]; mouse, 25 ppm): 100% | Cell-Survival Rate (B-16 melanoma cells [1]; mouse, 50 ppm): 100% | Cell-Survival Rate (B-16 melanoma cells [1]; mouse, 100 ppm): 100% | Cell-Survival Rate (B-16 melanoma cells [1]; mouse, 200 ppm): 93% | Cell-Survival Rate (B-16 melanoma cells [1]; mouse, 300 ppm): 80% | Cell-Survival Rate (B-16 melanoma cells [1]; mouse, 450 ppm): 66% | Whitening degree (B-16 melanoma cells [2]; concentration 10 ppm): − | Whitening degree (B-16 melanoma cells [2]; concentration 15 ppm): − | Whitening degree (B-16 melanoma cells [2]; concentration 25 ppm): − | Whitening degree (B-16 melanoma cells [2]; concentration 50 ppm): ± | Whitening degree (B-16 melanoma cells [2]; concentration 100 ppm): ± | Whitening degree (B-16 melanoma cells [2]; concentration 200 ppm): + | Whitening degree (B-16 melanoma cells [2]; concentration 300 ppm): ++ | Whitening degree (B-16 melanoma cells [2]; concentration 400 ppm): ++

SMILES: CC1(C)CC[C@]2(C(=O)O)CC[C@]3(C)C(=CC[C@@H]4[C@@]5(C)C[C@@H](O)[C@H](O)C(C)(C)[C@@H]5CC[C@]43C)[C@@H]2C1 [Purified maslinic acid 1, maslinic acid]
Cell-Survival Rate (B-16 melanoma cells [1]; [3]): 100% | Cell-Survival Rate (B-16 melanoma cells [1]; [4]): 100% | Cell-Survival Rate (B-16 melanoma cells [1]; [5]): 100% | Cell-Survival Rate (B-16 melanoma cells [1]; [6]): 79% | Cell-Survival Rate (B-16 melanoma cells [1]; [7]): 57% | Whitening degree (B-16 melanoma cells [2]; concentration 2 ppm): ± | Whitening degree (B-16 melanoma cells [2]; concentration 4 ppm): + | Whitening degree (B-16 melanoma cells [2]; concentration 6 ppm): ++ | Whitening degree (B-16 melanoma cells [2]; concentration 8 ppm): ++ | Whitening degree (B-16 melanoma cells [2]; concentration 10 ppm): ++ | whitening effect, times that observed for vitamin C-magnesium phosphate (B-16 melanoma cells [2]): about 110 times | added concentration at which the whitening effect is almost identical to that of the positive control (B-16 melanoma cells [2]): 4 ppm

SMILES: CC1(C)CC[C@]2(C(=O)O)CC[C@]3(C)C(=CC[C@@H]4[C@@]5(C)C[C@@H](O)[C@H](O)C(C)(C)[C@@H]5CC[C@]43C)[C@@H]2C1 [Purified maslinic acid 2, maslinic acid]
Cell-Survival Rate (B-16 melanoma cells [1]; [3]): 100% | Cell-Survival Rate (B-16 melanoma cells [1]; [4]): 100% | Cell-Survival Rate (B-16 melanoma cells [1]; [5]): 100% | Cell-Survival Rate (B-16 melanoma cells [1]; [6]): 88% | Cell-Survival Rate (B-16 melanoma cells [1]; [7]): 69% | Whitening degree (B-16 melanoma cells [2]; concentration 2 ppm): ± | Whitening degree (B-16 melanoma cells [2]; concentration 4 ppm): + | Whitening degree (B-16 melanoma cells [2]; concentration 6 ppm): ++ | Whitening degree (B-16 melanoma cells [2]; concentration 8 ppm): ++ | Whitening degree (B-16 melanoma cells [2]; concentration 10 ppm): ++ | whitening effect, times that observed for vitamin C-magnesium phosphate (B-16 melanoma cells [2]): about 110 times | added concentration at which the whitening effect is almost identical to that of the positive control (B-16 melanoma cells [2]): 4 ppm

oil-solubility, in words (Solubility (oil / water)): oil-soluble
SMILES: C[C@H]1[C@H](C)CC[C@]2(CO)CC[C@]3(C)C(=CC[C@@H]4[C@@]5(C)CC[C@H](O)C(C)(C)[C@@H]5CC[C@]43C)[C@H]12 [Uvaol, uvaol]
cell-survival rate at the added concentration showing a whitening degree almost identical to vitamin C-magnesium phosphate at 450 ppm (B-16 melanoma cells [1]; mouse): 99-100% | Cell-Survival Rate (B-16 melanoma cells [1]; mouse, 2 ppm): 100% | Cell-Survival Rate (B-16 melanoma cells [1]; mouse, 4 ppm): 100% | Cell-Survival Rate (B-16 melanoma cells [1]; mouse, 6 ppm): 100% | Cell-Survival Rate (B-16 melanoma cells [1]; mouse, 8 ppm): 100% | Cell-Survival Rate (B-16 melanoma cells [1]; mouse, 10 ppm): 100% | Cell-Survival Rate (B-16 melanoma cells [1]; mouse, 15 ppm): 100% | Cell-Survival Rate (B-16 melanoma cells [1]; mouse, 25 ppm): 90% | Cell-Survival Rate (B-16 melanoma cells [1]; mouse, 50 ppm): 82% | Cell-Survival Rate (B-16 melanoma cells [1]; mouse, 100 ppm): 71% | Cell-Survival Rate (B-16 melanoma cells [1]; mouse, 200 ppm): 61% | Whitening degree (B-16 melanoma cells [2]; concentration 2 ppm): − | Whitening degree (B-16 melanoma cells [2]; concentration 4 ppm): − | Whitening degree (B-16 melanoma cells [2]; concentration 6 ppm): − | Whitening degree (B-16 melanoma cells [2]; concentration 8 ppm): ± | Whitening degree (B-16 melanoma cells [2]; concentration 10 ppm): + | Whitening degree (B-16 melanoma cells [2]; concentration 15 ppm): + | Whitening degree (B-16 melanoma cells [2]; concentration 25 ppm): + | Whitening degree (B-16 melanoma cells [2]; concentration 50 ppm): +

SMILES: CC1(C)CC[C@]2(C(=O)O)CC[C@]3(C)C(=CC[C@@H]4[C@@]5(C)C[C@@H](O)[C@H](O)C(C)(C)[C@@H]5CC[C@]43C)[C@@H]2C1 [maslinic acid]
oil-solubility, in words (Solubility (oil / water)): oil-soluble | solubility in water, in words (Solubility (oil / water)): hardly soluble in water

From patent US20030133958A1, “External agent for the skin and whitening agent” (priority 2000, published 2003)
